Values of other authors as cited in US12686652B2, “Methods of increasing irrigation water and fertilizer delivery to soil using formic acid and formate salts, making a formate salt from carbon dioxide, and generating a carbon credit” (Deerpoint Group, Inc., priority 2023, dated 2026).
Read-outs that look alike come from different tables or passages of the source.

Settings: cited from earlier work

## [Fe+2] [Fe^+2]
  Solubility with anion CO3^−2: VSS (VSS means very slightly soluble (20-2,000 ppm))
  Solubility with anion HCO3^−: SS (SS means slightly soluble (2,000 to 5,000 ppm))
  Solubility with anion OH^−: VSS (VSS means very slightly soluble (20-2,000 ppm))
Listed as Fe^+3
  Solubility with anion CO3^−2: I (I means insoluble (<20 ppm))
  Solubility with anion HCO3^−: I (I means insoluble (<20 ppm))
  Solubility with anion OH^−: I (I means insoluble (<20 ppm))
Anion Cl^−
  Solubility with anion Cl^−: S (S means soluble (over 5,000 ppm))
Anion NO3^−
  Solubility with anion NO3^−: S (S means soluble (over 5,000 ppm))
Anion PO4^−3
  Solubility with anion PO4^−3: I (I means insoluble (<20 ppm))
Anion SO4^−2
  Solubility with anion SO4^−2: S (S means soluble (over 5,000 ppm))
Anion S^−2
  Solubility with anion S^−2: I (I means insoluble (<20 ppm))
